# Source: patent US20050282757A1, “Peptide boronic acid compounds useful in anticoagulation” (Trigen Limited, priority 2002, published 2005)
# Where “and” joins values, the source holds several entries; their conditions need not be identical. Equal entries are not always repeated. Entries after “also recorded” stand apart in the source; their conditions may differ. Marks after values point to notes of the source that are not given here.
# Columns and labels:
# thrombin time and APTT = test: Oral administration in dog, PK/PD (Example 45)
# Method: Three female and three male dogs were used for each leg of the study. The weight range of the dogs was 8-18 kg.
# The PD was measured as thrombin time and APTT using an automated coagulometer. Plasma concentrations were measured using an LCMS/MS method.
# The dose was tailored on an individual basis for each dog.
# [1] = Comparative storage stability of sodium and calcium salts (Example 49); assay type: physicochemical; conditions: for Tri50c (w/w %, LOD corr.): corrected for loss on drying
# Text: In both studies the active pharmaceutical ingredient was stored in grip sealed double bags within a PE/PP screw cap closed cylinder.
# thrombin time [2] = test: Intraduodenal absorption in rat, thrombin time (Examples 42 and 44); assay type: in vivo, male Wistar rats; design: Mean increase in thrombin time / Thrombin time increase: unit not given here; conditions: for Group mean thrombin time (s ± sd): 20 mg/kg intraduodenal
# Method: • Place 10 mg of the relevant compound in an Eppendorf cup • Add 0.5 mL ethanol and shake for 10 minutes • Sonicate for 10 minutes • Add 1.5 mL of buffer • Shake for additional 15 minutes • Resulting target concentration: 5 mg/mL B. Intraduodenal Studies
# The intraduodenal studies were performed using male Wistar rats, approximately 8 weeks of age and weighing between 250 and 300 g.
# Food was withheld overnight prior to dosing and returned approximately 2 hours post-dose. Water was available ad libitum.
# Animals were anaesthetised using gaseous halothane. A small incision was made in the abdomen and the duodenum located. Each animal received a single administration of control or test article by injection directly into the duodenum, using a constant dose volume of 4 mL/kg. Following administration the incision was closed using surgical staples.
# Individual dose volumes were based on individual body weights, obtained on the day of dosing. Treatments employed for the study were as follows:
# (§1) Approximately 0.6 mL of blood was collected via a tail vein into 3.8% tri sodium citrate tubes approximately 48 hours prior to dosing and again at 0.5, 1, 2, 4 and 8 hours post-dose.
# (§2) Plasma was prepared by centrifugation at […] for 10 minutes at 4° C. Plasma was stored frozen (nominally −20° C.) prior to analysis in an automated coagulometer.
# The thrombin times determined in example 42 were analysed to determine the standard deviation for increase in thrombin time, expressed as a percentage of the mean value (this is sometimes called the ‘coefficient of variation’).
# Thrombin Time (TT) = test: Oral administration of TGN 167 tablets to healthy male subjects (Example 47); assay type: in vivo, human
# Method: TGN 167 tablets described above were administered via the oral route to 10 healthy male subjects as single doses (randomised double blind placebo controlled study). The group consisted of 10 healthy male volunteers, 9 of whom received active compound and one of whom received placebo. An amendment was introduced for the last panel, allowing 15 subjects (instead of 9) to receive a 600 mg dose. The interval between each dose of TGN 167 was one week minimum. The allocation of the placebo was such that each volunteer would only receive placebo once during the course of the study.
# Orally administered doses were: 75 mg (one tablet), 150 mg (two tablets), 300 mg (four tablets) and 600 mg (eight tablets).
# [3] = Stability in enteric-coated hard gelatin capsules, HPLC-PDA (Example 41); assay type: physicochemical; conditions: for Amount of Tri50c: 10 mg content in 10 ml
# Method: TRI 50c-standard (free acid) was stored in a desiccator over phosphorus pentoxide for 2 days for drying. Afterwards, the reference standard was weighed in a volumetric flask and dissolved in a mixture of acetonitrile and water (25/75 v/v %). Aliquots of the resulting solution (ST 1A) were diluted successively with water as shown in the dilution scheme of table 4.
# The stored capsules of every batch at corresponding climatic condition were removed and 10 mg of the content was weighed in a 10 ml volumetric flask and dissolved in 10 ml of a mixture of acetonitrile/water (25/75 v/v %). These solutions were injected for impurity profile analysis and for quantification respectively.
# The quantitative evaluation and the impurity profile analysis were performed using an HPLC-PDA method. The processing wavelength was set as 258 nm.
# thrombin time [4] = test: Oral absorption in rat, thrombin time (Example 43); assay type: in vivo, male Wistar rats; conditions: 20 mg/kg oral gavage
# Method: The procedure of Example 42 was followed.
# The per-oral studies were performed using male Wistar rats, approximately 8 weeks of age and weighing between 250 and 300 g.
# Food was withheld overnight prior to dosing and returned approximately 2 hours post-dose. Water was available adlibitum.
# Each animal received a single administration of control or test article by oral gavage, using a constant dose volume of 4 mL/kg.
# Individual dose volumes were based on individual body weights, obtained on the day of dosing.
# as §1, §2
# [5] = individual rats dosed intraduodenally, listed as Ca Salt, hemicalcium salt, in s
# [6] = capsules (no blister) 40° C./75% r.h.
# [7] = capsules in blister 25° C./60% r.h.
# [8] = capsules in blister 40° C./75% r.h.
structure (smiles),measurement,setting,value
"COCCC[C@H](NC(=O)[C@@H]1CCCN1C(=O)[C@@H](Cc1ccccc1)NC(=O)OCc1ccccc1)B([O-])O.COCCC[C@H](NC(=O)[C@@H]1CCCN1C(=O)[C@@H](Cc1ccccc1)NC(=O)OCc1ccccc1)B([O-])O.[Ca+2] [TRI 50c calcium salt, Cbz-(R)-Phe-(S)-Pro-(R)-Mpg-B(OH)2 hemicalcium salt]",mean thrombin clotting time 8 hours post dose,thrombin time and APTT,20.2 s
same,time of peak thrombin time post dose,thrombin time and APTT,three hours post dose
same,mean APTT at peak,"thrombin time and APTT; 3 hours following administration, from 14.5 seconds",18 s
same,mean thrombin clotting time at peak (C max),"thrombin time and APTT; base line 15 seconds (calcium salt), 15.4 seconds (TRI 50c)",80.5 s
same,tolerance,thrombin time and APTT; enterically coated gelatine capsules,tolerated well with no adverse events
same,estimated bioavailability in some animals,thrombin time and APTT; estimated from thrombin clotting times,≤ 50%
same,mean estimated bioavailability,"thrombin time and APTT; estimated from thrombin clotting times, including two lower responders",25%
same,peak thrombin clotting times achieved by all dogs,thrombin time and APTT; individual dogs,up to 148 seconds
same,Color,[1]; T = 0,white
same,TRI 50c (% peak area),[1]; T = 0,99.4 % peak area
same,"Tri50c (w/w %, LOD corr.)",[1]; T = 0,99.7 w/w %
same,Appearance,"[1]; T = 0, hemicalcium salt","powdery,; also recorded: odourless"
same,Appearance,"[1]; T = 1, 25° C./60% r.h.",powdery
same,Color,"[1]; T = 1, 25° C./60% r.h.",white
same,TRI 50c (% peak area),"[1]; T = 1, 25° C./60% r.h.",98.3 % peak area
same,"Tri50c (w/w %, LOD corr.)","[1]; T = 1, 25° C./60% r.h.",101.5 w/w %
same,Appearance,"[1]; T = 1, 40° C./75% r.h.",powdery
same,Color,"[1]; T = 1, 40° C./75% r.h.",white
same,TRI 50c (% peak area),"[1]; T = 1, 40° C./75% r.h.",95.2 % peak area
same,"Tri50c (w/w %, LOD corr.)","[1]; T = 1, 40° C./75% r.h.",100.6 w/w %
same,Appearance,"[1]; T = 1, −20° C.",powdery
same,Color,"[1]; T = 1, −20° C.",white
same,TRI 50c (% peak area),"[1]; T = 1, −20° C.",99.1 % peak area
same,"Tri50c (w/w %, LOD corr.)","[1]; T = 1, −20° C.",102.7 w/w %
same,Appearance,"[1]; T = 3, 25° C./60% r.h.",powdery
same,Color,"[1]; T = 3, 25° C./60% r.h.",white
same,TRI 50c (% peak area),"[1]; T = 3, 25° C./60% r.h.",97.5 % peak area
same,"Tri50c (w/w %, LOD corr.)","[1]; T = 3, 25° C./60% r.h.",104.3 w/w %
same,Appearance,"[1]; T = 3, 40° C./75% r.h.",powdery
same,Color,"[1]; T = 3, 40° C./75% r.h.",white
same,TRI 50c (% peak area),"[1]; T = 3, 40° C./75% r.h.",71.2 % peak area
same,"Tri50c (w/w %, LOD corr.)","[1]; T = 3, 40° C./75% r.h.",82.0 w/w %
same,Appearance,"[1]; T = 3, −20° C.",powdery
same,Color,"[1]; T = 3, −20° C.",white
same,TRI 50c (% peak area),"[1]; T = 3, −20° C.",99.2 % peak area
same,"Tri50c (w/w %, LOD corr.)","[1]; T = 3, −20° C.",103.0 w/w %
same,TRI 50c (% peak area),"[1]; T = 12, 25° C./60% r.h.",96.9 % peak area
same,"Tri50c (w/w %, LOD corr.)","[1]; T = 12, 25° C./60% r.h.",94.8 w/w %
same,Group mean thrombin time (s ± sd),thrombin time [2]; 0.5 hour,42.0 ± 6.74 s
same,Group mean thrombin time (s ± sd),thrombin time [2]; 1 hour,34.0 ± 1.89 s
same,Group mean thrombin time (s ± sd),thrombin time [2]; 2 hour,22.6 ± 5.10 s
same,Group mean thrombin time (s ± sd),thrombin time [2]; 4 hour,24.4 ± 2.41 s
same,Group mean thrombin time (s ± sd),thrombin time [2]; 8 hour,22.4 ± 1.73 s
same,Group mean thrombin time (s ± sd),thrombin time [2]; −48 hour (pre-dose),21.6 ± 1.77 s
same,Mean increase in thrombin time,"thrombin time [2]; 0.5 h minus 0 h, intraduodenal",20.50
same,"Thrombin time, 0 h",thrombin time [2]; [5],21.97 and 18.75 and 23.57 and 21.57
same,"Thrombin time, 0.5 h",thrombin time [2]; [5],35.32 and 45.98 and 37.27 and 49.30
same,Thrombin time increase,"thrombin time [2]; individual rats, 0.5 h minus 0 h, listed as Ca Salt, hemicalcium salt",13.35 and 27.23 and 13.70 and 27.73
same,safety assessments,"Thrombin Time (TT); oral 75, 150, 300, 600 mg",No clinically significant findings
same,time after administration at which all TT had returned to baseline,Thrombin Time (TT); oral tablets,10 h
same,effect on thrombin time (TT),Thrombin Time (TT); oral tablets 75-600 mg,dose-related increase in the Thrombin Time (TT)
same,adverse clinical events,"Thrombin Time (TT); study period of 24 hours, any dose",no adverse clinical events of either a general or cardiovascular nature
same,Benzaldeh. % Area in impurity profile,[3]; [6],3.64 % Area
same,Imp.I % Area in impurity profile,[3]; [6],0.84 % Area
same,Amount of Tri50c,[3]; [6],780.097 µg/mL
same,Benzaldeh. % Area in impurity profile,[3]; [7],1.29 % Area
same,Amount of Tri50c,[3]; [7],930.903 µg/mL
same,Benzaldeh. % Area in impurity profile,[3]; [8],2.37 % Area
same,Amount of Tri50c,[3]; [8],786.223 µg/mL
same,Purity (HPLC % Area) T1,"[3]; capsules in blister, 1.5 month 25° C./60% r.h., hemicalcium salt",98.0 HPLC % Area
same,Purity (HPLC % Area) T1,"[3]; capsules in blister, 1.5 month 25° C./60% r.h., listed as TRI50C Ca Salt, hemicalcium salt",98.02 HPLC % Area
same,Purity (HPLC % Area) T1,"[3]; capsules in blister, 1.5 month 40° C./75% r.h., hemicalcium salt",97.2 HPLC % Area
same,Purity (HPLC % Area) T1,"[3]; capsules in blister, 1.5 month 40° C./75% r.h., listed as TRI50C Ca Salt, hemicalcium salt",97.19 HPLC % Area
same,Purity (HPLC % Area) T1,"[3]; capsules without blister, 1.5 month 40° C./75% r.h., hemicalcium salt",95.0 HPLC % Area
same,Purity (HPLC % Area) T1,"[3]; capsules without blister, 1.5 month 40° C./75% r.h., listed as TRI50C Ca Salt, hemicalcium salt",94.96 HPLC % Area
same,Purity (HPLC % Area) T0,"[3]; purity of the batch before storage, hemicalcium salt",99.2^2) HPLC % Area and 99.2^2 HPLC % Area
same,Group mean thrombin times (s ± sd),thrombin time [4]; 0.5 hour,25.9 ± 3.05 s
same,Group mean thrombin times (s ± sd),thrombin time [4]; 1 hour,25.7 ± 1.94 s
same,Group mean thrombin times (s ± sd),thrombin time [4]; 2 hour,24.3 ± 0.98 s
same,Group mean thrombin times (s ± sd),thrombin time [4]; 4 hour,25.0 ± 1.31 s
same,Group mean thrombin times (s ± sd),thrombin time [4]; 8 hour,22.9 ± 3.46 s
same,Group mean thrombin times (s ± sd),thrombin time [4]; −48 hour (pre-dose),23.4 ± 1.25 s
